Like-named read-outs stand apart in the source and are kept apart here.
What was measured:
UGT1A1 = target: T1, UGT1A1 (Homo sapiens, UniProt P22309); assay: UGT1A1 supersomes-catalyzed 4-MU glucuronidation inhibition; conditions: recombinant human UGT, mean of triplicate
T1 sequence (P22309 26-533): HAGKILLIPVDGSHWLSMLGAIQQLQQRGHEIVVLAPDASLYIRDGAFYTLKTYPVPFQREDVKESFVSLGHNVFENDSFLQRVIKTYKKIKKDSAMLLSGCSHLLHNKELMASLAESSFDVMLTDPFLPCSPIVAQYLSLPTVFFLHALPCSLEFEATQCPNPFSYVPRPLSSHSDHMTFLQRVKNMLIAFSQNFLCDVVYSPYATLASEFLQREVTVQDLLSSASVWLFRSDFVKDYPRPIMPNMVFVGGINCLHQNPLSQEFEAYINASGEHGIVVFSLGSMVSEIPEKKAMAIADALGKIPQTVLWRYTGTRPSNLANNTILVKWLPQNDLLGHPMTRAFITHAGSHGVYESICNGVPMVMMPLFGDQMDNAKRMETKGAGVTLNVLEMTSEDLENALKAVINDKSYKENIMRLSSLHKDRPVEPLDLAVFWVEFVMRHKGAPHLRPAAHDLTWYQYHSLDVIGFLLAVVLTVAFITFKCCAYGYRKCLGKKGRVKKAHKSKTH

UGT2B4 = target: T2, UGT2B4 (Homo sapiens, UniProt P06133); assay: UGT2B4 supersomes-catalyzed 4-MU glucuronidation inhibition; conditions: recombinant human UGT, mean of triplicate
T2 sequence (P06133 24-528): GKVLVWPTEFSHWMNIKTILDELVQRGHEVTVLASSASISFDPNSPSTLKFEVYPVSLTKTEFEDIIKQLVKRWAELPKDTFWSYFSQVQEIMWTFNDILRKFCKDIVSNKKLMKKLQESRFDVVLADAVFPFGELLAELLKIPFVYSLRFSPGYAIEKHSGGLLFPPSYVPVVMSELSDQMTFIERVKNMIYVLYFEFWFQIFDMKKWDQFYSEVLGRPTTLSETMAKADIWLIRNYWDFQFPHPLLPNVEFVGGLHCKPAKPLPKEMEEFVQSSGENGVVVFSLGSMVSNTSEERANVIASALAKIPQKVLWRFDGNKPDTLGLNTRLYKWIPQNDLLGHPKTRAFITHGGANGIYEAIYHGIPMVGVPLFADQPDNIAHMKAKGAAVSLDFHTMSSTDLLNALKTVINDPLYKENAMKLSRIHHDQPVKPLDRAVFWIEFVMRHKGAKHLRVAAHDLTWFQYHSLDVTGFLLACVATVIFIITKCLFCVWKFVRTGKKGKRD

UGT2B7 = target: T3, UGT2B7 (Homo sapiens, UniProt P16662); assay: UGT2B7 supersomes-catalyzed 4-MU glucuronidation inhibition; conditions: recombinant human UGT, mean of triplicate
T3 sequence (P16662 24-529): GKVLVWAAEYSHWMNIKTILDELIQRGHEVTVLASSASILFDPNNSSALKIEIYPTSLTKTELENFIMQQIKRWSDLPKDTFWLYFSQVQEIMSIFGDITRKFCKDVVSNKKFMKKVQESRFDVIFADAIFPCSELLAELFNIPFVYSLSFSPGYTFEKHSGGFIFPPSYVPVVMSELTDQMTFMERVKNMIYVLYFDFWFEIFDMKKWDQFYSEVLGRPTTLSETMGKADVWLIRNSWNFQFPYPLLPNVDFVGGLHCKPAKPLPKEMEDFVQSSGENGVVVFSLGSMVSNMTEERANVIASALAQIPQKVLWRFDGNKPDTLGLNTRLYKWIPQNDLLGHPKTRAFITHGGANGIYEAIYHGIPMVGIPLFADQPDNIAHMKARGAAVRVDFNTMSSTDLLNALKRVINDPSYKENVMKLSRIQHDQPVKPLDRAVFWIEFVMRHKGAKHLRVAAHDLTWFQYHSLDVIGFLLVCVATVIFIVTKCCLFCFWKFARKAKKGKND

UGT1A6 = target: T4, UGT1A6 (Homo sapiens, UniProt P19224); conditions: for residual activity 1A6: recombinant human UGT, mean of triplicate; for inhibition kinetic type towards UGT1A6: Dixon and Lineweaver-Burk plots, 4-MU glucuronidation
T4 sequence (P19224 27-532): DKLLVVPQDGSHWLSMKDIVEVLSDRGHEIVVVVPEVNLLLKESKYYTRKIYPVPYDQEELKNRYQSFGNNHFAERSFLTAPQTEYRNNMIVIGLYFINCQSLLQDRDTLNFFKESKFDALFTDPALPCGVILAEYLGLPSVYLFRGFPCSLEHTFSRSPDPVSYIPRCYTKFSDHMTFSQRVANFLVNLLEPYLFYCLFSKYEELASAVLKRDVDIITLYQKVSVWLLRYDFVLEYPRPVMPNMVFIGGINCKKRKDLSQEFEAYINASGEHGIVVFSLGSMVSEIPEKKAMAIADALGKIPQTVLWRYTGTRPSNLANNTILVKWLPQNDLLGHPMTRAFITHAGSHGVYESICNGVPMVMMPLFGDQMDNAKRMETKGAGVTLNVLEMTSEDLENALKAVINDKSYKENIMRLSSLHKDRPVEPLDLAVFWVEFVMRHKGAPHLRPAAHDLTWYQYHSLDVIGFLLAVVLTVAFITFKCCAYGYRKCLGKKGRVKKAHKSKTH

UGT1A8 = target: T5, UGT1A8 (Homo sapiens, UniProt Q9HAW9); conditions: for residual activity 1A8: recombinant human UGT, mean of triplicate
T5 sequence (Q9HAW9 26-530): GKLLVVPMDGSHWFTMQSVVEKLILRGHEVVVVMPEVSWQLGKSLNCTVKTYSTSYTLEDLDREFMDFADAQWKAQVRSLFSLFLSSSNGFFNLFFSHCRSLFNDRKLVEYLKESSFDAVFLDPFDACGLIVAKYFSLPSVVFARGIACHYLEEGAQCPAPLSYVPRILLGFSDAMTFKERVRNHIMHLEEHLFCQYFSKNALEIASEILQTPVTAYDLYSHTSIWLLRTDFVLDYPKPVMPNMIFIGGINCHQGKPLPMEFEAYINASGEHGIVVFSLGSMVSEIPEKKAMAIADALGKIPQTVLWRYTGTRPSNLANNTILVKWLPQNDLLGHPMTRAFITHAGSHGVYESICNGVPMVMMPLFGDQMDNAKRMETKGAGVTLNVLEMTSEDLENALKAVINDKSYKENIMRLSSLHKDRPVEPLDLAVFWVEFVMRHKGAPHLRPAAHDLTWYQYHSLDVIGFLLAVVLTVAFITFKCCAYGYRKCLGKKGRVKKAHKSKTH

Structure (SMILES)	residual activity 1A1 (UGT1A1; 50 μM LPC components) [%]	residual activity 2B4 (UGT2B4; 50 μM LPC components) [%]	residual activity 2B7 (UGT2B7; 50 μM LPC components) [%]	residual activity 1A6 (UGT1A6; 50 μM LPC components) [%]	residual activity 1A8 (UGT1A8; 50 μM LPC components) [%]	inhibition kinetic type towards UGT1A6 (UGT1A6)	inhibition kinetic type towards UGT1A8 (UGT1A8; Dixon and Lineweaver-Burk plots, 4-MU glucuronidation)	residual activity 1A1 (UGT1A1; 50 μM PC components) [%]	residual activity 2B4 (UGT2B4; 50 μM PC components) [%]	residual activity 2B7 (UGT2B7; 50 μM PC components) [%]	residual activity 1A6 (UGT1A6; 50 μM PC components) [%]	residual activity 1A8 (UGT1A8; 50 μM PC components) [%]	inhibition percentage of UGT1A6 activity (UGT1A6; 50 μM) [%]
CCCCCC(=O)OC[C@@H](O)COP(=O)([O-])OCC[N+](C)(C)C [LPC 6:0]	176.7	183.6	70.0	72.7	108.0	–	–	–	–	–	–	–	–
CCCCCCC(=O)OCC(O)COP(=O)([O-])OCC[N+](C)(C)C (stereo not shown) [LPC 7:0]	174.9	183.5	73.8	71.0	101.1	–	–	–	–	–	–	–	–
CCCCCCCC(=O)OCC(O)COP(=O)([O-])OCC[N+](C)(C)C (stereo not shown) [LPC 8:0]	184.9	185.0	70.1	74.2	102.7	–	–	–	–	–	–	–	–
CCCCCCCCC(=O)OC[C@@H](O)COP(=O)([O-])OCC[N+](C)(C)C [LPC 9:0]	179.6	179.1	76.2	67.2	101.2	–	–	–	–	–	–	–	–
CCCCCCCCCC(=O)OC[C@@H](O)COP(=O)([O-])OCC[N+](C)(C)C [LPC 10:0]	170.2	208.4	77.3	65.7	100.7	–	–	–	–	–	–	–	–
CCCCCCCCCCC(=O)OC[C@@H](O)COP(=O)([O-])OCC[N+](C)(C)C [LPC 11:0]	167.3	217.6	78.0	65.7	124.0	–	–	–	–	–	–	–	–
CCCCCCCCCCCC(=O)OC[C@@H](O)COP(=O)([O-])OCC[N+](C)(C)C [LPC 12:0]	165.9	255.5	72.8	80.2	89.2	–	–	–	–	–	–	–	–
CCCCCCCCCCCCC(=O)OC[C@@H](O)COP(=O)([O-])OCC[N+](C)(C)C [LPC 13:0]	160.6	239.4	79.9	83.8	101.6	–	–	–	–	–	–	–	–
CCCCCCCCCCCCCC(=O)OC[C@@H](O)COP(=O)([O-])OCC[N+](C)(C)C [LPC 14:0]	171.3	217.1	90.5	33.3	19.2	–	–	–	–	–	–	–	–
CCCCCCCCCCCCCCC(=O)OC[C@@H](O)COP(=O)([O-])OCC[N+](C)(C)C [LPC 15:0]	162.9	152.6	43.9	2.9	1.6	competitive inhibition	–	–	–	–	–	–	–
CCCCCCCCCCCCCCCCC(=O)OC[C@@H](O)COP(=O)([O-])OCC[N+](C)(C)C [LPC 17:0]	167.6	333.4	81.5	8.5	2.2	–	–	–	–	–	–	–	–
CCCCCCCCCCCCCCCCCC(=O)OC[C@@H](O)COP(=O)([O-])OCC[N+](C)(C)C [LPC 18:0]	160.5	280.4	39.3	4.3	1.2	non-competitively inhibited	competitive inhibition	–	–	–	–	–	–
CCCCCC(=O)OC[C@H](COP(=O)([O-])OCC[N+](C)(C)C)OC(=O)CCCCC [PC 6:0, 6:0]	–	–	–	–	–	–	–	187.8	178.7	70.2	67.3	116.2	–
CCCCCCC(=O)OC[C@H](COP(=O)([O-])OCC[N+](C)(C)C)OC(=O)CCCCCC [PC 7:0, 7:0]	–	–	–	–	–	–	–	176.8	186.9	64.5	50.7	106.1	–
CCCCCCCC(=O)OC[C@H](COP(=O)([O-])OCC[N+](C)(C)C)OC(=O)CCCCCCC [PC 8:0, 8:0]	–	–	–	–	–	–	–	155.6	173.1	71	25.6	78.3	74.4
